Reference: patent publication US20180327367A1, “MACROCYCLIC BROAD SPECTRUM ANTIBIOTICS” (priority 2015, published 2018)
Converted amounts (≈) assume the structure as drawn.

Legend:
[1] = system: Methicillin Resistant Staphylococcus aureus strain USA 300, NRS384; assay: Minimum inhibitory concentration, broth micro-dilution (CLSI), S. aureus; type: cell-based; details: Staphylococcus aureus, MRSA / NRS 384 / USA300, 22 h, MRSA USA 300 NRS384; 35° C., 22 hours; read-out: MIC (μg/mL) S. aureus
Outline: (§1)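 CLSI broth microdilution in cation-adjusted Mueller Hinton Broth with 0.002% Tween-80; inoculum final OD600 0.0005, 22 hours at 35° C. Ten 2-fold dilutions starting at 4 μg/mL (protocol 2) or 0.5 μg/mL (protocol 3).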

[2] = system: Escherichia coli ATCC 25922; assay: Minimum inhibitory concentration, broth micro-dilution (CLSI), E. coli; type: cell-based; details: Escherichia coli, ATCC25922, 22 h, E. coli ATCC 25922; 35° C., 22 hours; read-out: MIC (μg/mL) E. coli
[3] = system: Escherichia coli MC4100 harboring the IMP4213 (E. coli IMP); assay: microbe, parasite or virus in culture; type: cell-based; details: Escherichia coli, 22 h, read-out: MIC (μg/mL) E. coli IMP, E. coli MC4100 IMP4213, increased outer-membrane permeability; 35° C., 22 hours
Outline: as §1

[4] = molecular target: T1, SpsB (Staphylococcus aureus signal peptidase) (Staphylococcus aureus, UniProt P0A070); assay: cell-based; type: biochemical; details: SpsB IC50, whole-cell S. aureus (USA300 background, overexpressing SpsB) as SpsB source; fluorogenic peptide substrate, kinetic read 30 min
T1 construct: This assay uses a suspension of Staphylococcus aureus cells as a source of SpsB instead of recombinant SpsB protein; endogenous in cells; host or cells: S. aureus, USA300 background, overexpressing SpsB (whole-cell suspension from frozen pellets)
Outline: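 Whole S. aureus cells (USA300, overexpressing SpsB) in PBS with MgCl2, CaCl2 and 0.1% Tween-80 served as enzyme source, mixed with 20 μM stock of (Dabcyl)βAla-KPAKAAE(Edans) substrate before use. Fluorescence (ex 340/em 490 nm) read kinetically over 30 min. IC50 from reaction rate versus 11-point inhibitor concentration.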

T1 sequence (P0A070 whole entry): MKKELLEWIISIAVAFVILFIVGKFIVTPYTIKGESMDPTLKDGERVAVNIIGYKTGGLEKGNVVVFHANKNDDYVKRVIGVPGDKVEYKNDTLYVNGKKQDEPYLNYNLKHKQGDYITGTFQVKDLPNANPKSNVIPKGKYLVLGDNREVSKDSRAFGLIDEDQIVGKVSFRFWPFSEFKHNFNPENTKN

SMILES	MIC [1]	MIC [2]	MIC [3]	IC50 [4]
Cc1cc(-c2cnc(CC(C)C)cn2)ccc1C(=O)N[C@@H](CCN)C(=O)N(C)[C@@H]1C(=O)N[C@@H](C)C(=O)N[C@H](C(=O)NCC#N)Cc2ccc(OCCN)c(c2)-c2cc1ccc2OCCN [Compound 178]	0.25 µg/mL (≈ 0.281 µM)	1.5 µg/mL (≈ 1.69 µM)	0.039 µg/mL (≈ 0.0438 µM)	0.9 nM
Cc1cc(-c2cnc(CC(C)C)nc2)ccc1C(=O)N[C@@H](CCN)C(=O)N(C)[C@@H]1C(=O)N[C@@H](C)C(=O)N[C@H](C(=O)NCC#N)Cc2ccc(OCCN)c(c2)-c2cc1ccc2OCCN [Compound 179]	0.047 µg/mL (≈ 0.0528 µM)	0.19 µg/mL (≈ 0.213 µM)	0.0078 µg/mL (≈ 0.00876 µM)	1.8 nM
CC(C)Cc1cnc(-c2ccc(C(=O)N[C@@H](CCN)C(=O)N(C)[C@@H]3C(=O)N[C@@H](C)C(=O)N[C@H](C(=O)NCC#N)Cc4ccc(OCCN)c(c4)-c4cc3ccc4OCCN)c3ccccc23)nc1 [Compound 182]	0.5 µg/mL (≈ 0.54 µM)	12 µg/mL (≈ 13 µM)	0.13 µg/mL (≈ 0.14 µM)	3.2 nM
CCC(C)(C)c1ccc(-c2ncc(C(=O)N[C@@H](CCN)C(=O)N(C)[C@@H]3C(=O)N[C@@H](C)C(=O)N[C@H](C(=O)NCC#N)Cc4ccc(OCCN)c(c4)-c4cc3ccc4OCCN)c(C)n2)cc1 [Compound 183]	0.063 µg/mL (≈ 0.0697 µM)	0.13 µg/mL (≈ 0.144 µM)	0.0059 µg/mL (≈ 0.00653 µM)	0.62 nM
CCCCCCCCc1ccc(C(=O)N[C@@H](CCN)C(=O)N(C)[C@@H]2C(=O)N[C@@H](C)C(=O)N[C@H](C(=O)NCC#N)Cc3ccc(OCCN)c(c3)-c3cc2ccc3OCCN)c(F)c1 [Compound 184]	0.094 µg/mL (≈ 0.108 µM)	0.25 µg/mL (≈ 0.287 µM)	0.012 µg/mL (≈ 0.0138 µM)	0.89 nM
CCCCCCCCc1ccc(C(=O)N[C@@H](CCN)C(=O)N(C)[C@@H]2C(=O)N[C@@H](C)C(=O)N[C@H](C(=O)NCC#N)Cc3ccc(OCCN)c(c3)-c3cc2ccc3OCCN)c(SC)c1 [Compound 185]	0.19 µg/mL (≈ 0.211 µM)	0.75 µg/mL (≈ 0.833 µM)	0.094 µg/mL (≈ 0.104 µM)	0.91 nM
CCCCCCCCc1cnc(C(=O)N[C@@H](CCN)C(=O)N(C)[C@@H]2C(=O)N[C@@H](C)C(=O)N[C@H](C(=O)NCC#N)Cc3ccc(OCCN)c(c3)-c3cc2ccc3OCCN)c(C)c1 [Compound 187]	0.063 µg/mL (≈ 0.0725 µM)	2 µg/mL (≈ 2.3 µM)	0.047 µg/mL (≈ 0.0541 µM)	0.74 nM
CCCCCCCc1cc(C)c(C(=O)N[C@@H](CCN)C(=O)N(C)[C@@H]2C(=O)N[C@@H](C)C(=O)N[C@H](C(=O)NCC#N)Cc3ccc(OCCN)c(c3)-c3cc2ccc3OCCN)c(F)c1 [Compound 188]	0.047 µg/mL (≈ 0.0539 µM)	0.22 µg/mL (≈ 0.252 µM)	0.018 µg/mL (≈ 0.0206 µM)	0.67 nM
CCCCCCCc1cc(F)c(C(=O)N[C@@H](CCN)C(=O)N(C)[C@@H]2C(=O)N[C@@H](C)C(=O)N[C@H](C(=O)NCC#N)Cc3ccc(OCCN)c(c3)-c3cc2ccc3OCCN)c(F)c1 [Compound 190]	0.063 µg/mL (≈ 0.0719 µM)	0.31 µg/mL (≈ 0.354 µM)	0.02 µg/mL (≈ 0.0228 µM)	0.7 nM
CCCCCCCc1ccc(C(=O)N[C@@H](CCN)C(=O)N(C)[C@@H]2C(=O)N[C@@H](C)C(=O)N[C@H](C(=O)NCC#N)Cc3ccc(OCCN)c(c3)-c3cc2ccc3OCCN)c(C(F)(F)F)c1 [Compound 191]	0.031 µg/mL (≈ 0.0341 µM)	0.75 µg/mL (≈ 0.826 µM)	0.016 µg/mL (≈ 0.0176 µM)	0.62 nM
CCCCCCCCc1ccc(C(=O)N[C@@H](CCN)C(=O)N(C)[C@@H]2C(=O)N[C@@H](C)C(=O)N[C@H](C(=O)NCC#N)Cc3ccc(OCCN)c(c3)-c3cc2ccc3OCCN)c(C(F)(F)F)c1 [Compound 192]	0.063 µg/mL (≈ 0.0683 µM)	0.25 µg/mL (≈ 0.271 µM)	0.012 µg/mL (≈ 0.013 µM)	0.89 nM
CCCCCCCCc1ccc(C(=O)N[C@@H](CCN)C(=O)N(C)[C@@H]2C(=O)N[C@@H](C)C(=O)N[C@H](C(=O)NCC#N)Cc3ccc(OCCN)c(c3)-c3cc2ccc3OCCN)c(O)c1 [Compound 193]	0.063 µg/mL (≈ 0.0724 µM)	0.5 µg/mL (≈ 0.575 µM)	0.047 µg/mL (≈ 0.054 µM)	0.93 nM
CCCCCCCc1ccc(C(=O)N[C@@H](CCCN)C(=O)N(C)[C@@H]2C(=O)N[C@@H](C)C(=O)N[C@H](C(=O)NCC#N)Cc3ccc(OCCN)c(c3)-c3cc2ccc3OCCN)c(C)c1 [Compound 194]	0.016 µg/mL (≈ 0.0184 µM)	0.25 µg/mL (≈ 0.288 µM)	0.0078 µg/mL (≈ 0.00899 µM)	0.83 nM
CCCCCCc1ccc(C(=O)N[C@@H](CCN)C(=O)N(C)[C@@H]2C(=O)N[C@@H](C)C(=O)N[C@H](C(=O)NCC#N)Cc3ccc(OCCN)c(c3)-c3cc2ccc3OCCN)cc1 [Compound 195]	0.063 µg/mL (≈ 0.0763 µM)	0.5 µg/mL (≈ 0.605 µM)	0.0078 µg/mL (≈ 0.00944 µM)	1.4 nM
